# Data published in US11464751B2, “Use of fluoroethylnormemantine for the prevention and treatment of anxiety” (REST THERAPEUTICS, priority 2017, dated 2022).
# Legend:
# Format in all cases: in vivo, rat
# [1] = test system: naive rats (Wistar); assay: Forced swimming test; conditions: for Rat behavior over the period of time 1 to 6 minutes: frenetic movement / Rat behavior over the period of time 1 to 6 minutes: immobility (ies): second day, 30 min before; for Rat behavior over the period of time 1 to 6 minutes: immobility (ies): in s; for immobility time compared with control: all dose levels, particularly 10 mg/kg, p<0.001
# Method: • the forced swimming test: This test has been used for a number of years with rats or mice to test the activity of antidepressants (F. Borsini, Psychopharmacology (1988) 94:147-160) and consists of placing the animal in a bowl filled with room-temperature water. After 15 minutes (pre-test session), the animal is taken out of the water and dried. Twenty-four hours later, the animal is again exposed to the previous conditions and the time of total immobility for a period of 5 minutes is recorded (test session). The animal is considered immobile when it performs only the movements necessary to keep its head out of the water. This immobility is easier to assess in rats than in mice, which have less explicit movements.
# (§1) In the following examples, the effects of memantine, propranolol and fluoroethylnormemantine (FENM, the subject of the present invention) are studied in naive rats (Wistar) subjected to various tests related to depression or anxiety and then compared.
# (§2) The test substances are administered to rats intraperitoneally in a volume of 5 ml/kg, 30 minutes before the behavioral tests are performed.
# (§3) The injected solutions contain either of the molecules in the form of one of their salts, a hydrochloride (memantine·HCl and FENM·HCl) for the nitrogen derivatives and as such for propranolol, at the concentrations indicated below in a mixture of 95% (NaCl 0.9% ww in water)/5% ethanol. In each experiment, the dose per kilogram is referenced.
# In the forced swimming test, rats (12 per group) are forced to swim in a tank filled with 23° C. water (10 minutes on the first day to allow for habituation to the medium and 6 minutes on the second day).
# The behavior of the rats (stopping swimming, decreasing activity) is quantified by a video monitoring system.
# The therapeutic solutions to be tested are administered on the second day 30 minutes before the experiment.
# [2] = test system: naive rats (Wistar); assay: Light-dark box test
# Method: as §1, §2, §3
# For each paradigm, and each solution tested, 12 rats are subjected to injection and behavioral testing. The control solution is a saline solution.
# In this example the light-dark box test was used. As it is based on rodents' innate aversion to light, the increase in time spent in the lighted compartment is therefore considered to reflect a lower level of anxiety.
# The box used for this test is divided into a white behavior with high-power illumination (600 lux) and a black behavior with a lid (about 5 lux). The number of entries and the time spent in the illuminated compartment (anxiety zone) are recorded for 10 minutes by a video monitoring system. In addition, the system makes it possible to differentiate the periods between 0 and 5 minutes and between 5 and 10 minutes.
# [3] = test system: naive rats (Wistar); assay: Fear conditioning + extinction + stabilization (PTSD model)
# Source text: Several animal models have been developed to mimic the traumatic events that induce intense and recurrent fear symptoms characteristic of PTSD. • Pavlovian fear conditioning of the animals: This animal model consists of Pavlovian-type fear conditioning (Zovkic, Neuropsychopharmacology Reviews (2013) 38, 77-93): mice (or rats) are trained to associate exposure to danger (electric shock, etc.) with the presence of a specific cue or environment (sound cue for example). The memory of this association (danger-cue) is later tested by measuring tetany behavior (through fear) when the animal is re-exposed to the conditioning cue in the absence of real danger.
# Again, the occurrence of symptoms of PTSD are assessed after a certain period of time, without exposure to the hazard, to simulate the long-term onset of PTSD pathology. • Fear extinction: After a fear conditioning as described above it can be of interest to apply a protocol to extinguish this fear. Classically, this phase is placed 24 hours after the conditioning phase.
# The extinction protocols model the relearning of the normal (non-fear-motivated) response to the cue (sound) and are very useful in modeling PTSD. • Fear stabilization: It can be useful, to assess the performance of a treatment, to add a stabilization phase after the extinction phase, spaced 24 h apart. Typically, this phase puts the animals back under the extinction phase conditions. It then allows the detection of staggered performances of the treatments, but also of the resurgence of tetany (rebound effect).
# as §1, §2, §3
# The applicant used a fear conditioning test in which the clue (neutral conditional stimulus) is a sound, coupled with a danger (aversive unconditional stimulus) which is an electric shock delivered by the floor of the box. This conditioning is followed by a fear extinction phase with injection of the treatment solutions to be tested and then by a test phase itself. • Fear Conditioning Phase (FC): fear conditioning takes place in a standard conditioning box (context A, white box in Table 7) and the rats (8 per group) are subjected to 3 “sound-electroshock” pairs at times of 180 s, 381 s and 582 s after being placed in the box. Each sound lasts 20 s and each electroshock lasts 1 s with a current of 1 mA. • The fear extinction phase (Ext.) is conducted as follows: the rats are placed in a box similar to the one that will be used for the final test (context B, pink box in Table 7), for a 25-minute session. During this session, 24 presentations are made with the same sound as that used during the conditioning session (20 s each, 35 s apart). Of course, no electric shock is delivered, and the percentage of time of tetany (“freezing”) during the phase is recorded. • Stabilization phase: the day after the extinction phase, 30 minutes before the test phase, […] of 3 sounds (same sequence as used for conditioning), recording the percentage of time they remain still during this test phase. […]
Compound,Rat behavior over the period of time 1 to 6 minutes: frenetic movement ([1]; 1 mg/kg i.p.) [s],Rat behavior over the period of time 1 to 6 minutes: immobility (ies) ([1]; 1 mg/kg i.p.),Rat behavior over the period of time 1 to 6 minutes: frenetic movement ([1]; 3 mg/kg i.p.) [s],Rat behavior over the period of time 1 to 6 minutes: immobility (ies) ([1]; 3 mg/kg i.p.),Rat behavior over the period of time 1 to 6 minutes: frenetic movement ([1]; 10 mg/kg i.p.) [s],Rat behavior over the period of time 1 to 6 minutes: immobility (ies) ([1]; 10 mg/kg i.p.),immobility time compared with control [1],"Time spent in the lighted compartment ([2]; 1 mg/kg i.p., 0-5 min) [s]","Time spent in the lighted compartment ([2]; 1 mg/kg i.p., 0-10 min) [s]","Time spent in the lighted compartment ([2]; 1 mg/kg i.p., 5-10 min) [s]","Time spent in the lighted compartment ([2]; 3 mg/kg i.p., 0-5 min) [s]","Time spent in the lighted compartment ([2]; 3 mg/kg i.p., 0-10 min) [s]","Time spent in the lighted compartment ([2]; 3 mg/kg i.p., 5-10 min) [s]","Time spent in the lighted compartment ([2]; 10 mg/kg i.p., 0-5 min) [s]","Time spent in the lighted compartment ([2]; 10 mg/kg i.p., 0-10 min) [s]","Time spent in the lighted compartment ([2]; 10 mg/kg i.p., 5-10 min) [s]",also measured
"CC12CC3CC(C)(C1)CC(N)(C3)C2 [Memantine, memantine]",55.1,139.8,48.7,145.7,67.2,119.7,very significant (p<0.001) decrease,34.2,59.9,25.7,26.2,34.3,8.1,31.0,32.0,0.9,"time spent in the lighted compartment compared with the control ([2]; memantine 1, 3, 10 mg/kg): no effect was observed; rebound effect (increased tetany) compared with control during the stabilization phase ([3]; 10 mg/kg administered during the extinction phase): +25%"
NC12CC3CC(C1)CC(CCF)(C3)C2,43.2,157.8,47.6,164.3,60.6,140.5,very significant (p<0.001) decrease,42.4,71.0,28.6,34.4,67.5,33.2,96.8,171.9,75.0,"time spent in the lighted compartment compared with the control ([2]; 10 mg/kg, Student's t-test p<0.01): large and significant increase; Percentage of time of tetany (freezing) during the stabilization phase ([3]; 5 mg/kg, Early treatment: one injection 30 minutes before the extinction phase): 21%; Percentage of time of tetany (freezing) during the stabilization phase ([3]; 5 mg/kg, Late treatment: one injection 30 minutes before the stabilization phase): 26%; Percentage of time of tetany (freezing) during the stabilization phase ([3]; 5 mg/kg, Protective effect: one injection 30 minutes before the conditioning phase): 23%; Percentage of time of tetany (freezing) during the stabilization phase ([3]; 10 mg/kg, Early treatment: one injection 30 minutes before the extinction phase): 25%; Percentage of time of tetany (freezing) during the stabilization phase ([3]; 10 mg/kg, Late treatment: one injection 30 minutes before the stabilization phase): 4%; Percentage of time of tetany (freezing) during the stabilization phase ([3]; 10 mg/kg, Protective effect: one injection 30 minutes before the conditioning phase): 6%; Percentage of time of tetany (freezing) during the stabilization phase ([3]; 20 mg/kg, Early treatment: one injection 30 minutes before the extinction phase): 6%; Percentage of time of tetany (freezing) during the stabilization phase ([3]; 20 mg/kg, Late treatment: one injection 30 minutes before the stabilization phase): 2%; Percentage of time of tetany (freezing) during the stabilization phase ([3]; 20 mg/kg, Protective effect: one injection 30 minutes before the conditioning phase): 2%; tetany in the stabilization phase compared with control ([3]; administered at conditioning, early or late post-traumatic treatment): virtually eliminate"
